Reference: ChEMBL document CHEMBL1143799, “Synthesis and primary cytotoxicity evaluation of new imidazo[2,1-b]thiazole derivatives” (2007)

Assays:
Type in all cases: functional
SF-268 = assay: Cytotoxicity against human SF268 cells assessed as growth at 100 uM after 48 hrs by SRB protein assay relative to control; conditions: SF-268, 48 h, read-out: Activity
MCF7 = assay: Cytotoxicity against human MCF7 cells assessed as growth at 100 uM after 48 hrs by SRB protein assay relative to control; conditions: MCF7, 48 h, read-out: Activity
NCI-H460 = assay: Cytotoxicity against human […] cells assessed as growth at 100 uM after 48 hrs by SRB protein assay relative to control; conditions: NCI-H460, 48 h, read-out: Activity

Row | SMILES | growth at 100 µM (SF-268) | growth at 100 µM (MCF7) | growth at 100 µM (NCI-H460)
1 | COc1ccc(/C=N/NC(=O)Cc2csc3nc(-c4ccc(Br)cc4)cn23)cc1 | 56% | 46% | 34%
2 | O=C(Cc1csc2nc(-c3ccc(Br)cc3)cn12)N/N=C/c1ccc(F)cc1 | 84% | 71% | 35%
3 | CN(C)c1ccc(/C=N/NC(=O)Cc2csc3nc(-c4ccc(Br)cc4)cn23)cc1 | 77% | 82% | 69%
4 | O=C(Cc1csc2nc(-c3ccc(Br)cc3)cn12)N/N=C/c1ccc(Br)cc1 | 107% | 56% | 75%
